Experimental data from ChEMBL document CHEMBL4765354, “Structure guided design of potent indole-based ATX inhibitors bearing hydrazone moiety with tumor suppression effects” (Eur J Med Chem, 2020).

Experiments:
Autotaxin = Autotaxin (Homo sapiens, UniProt Q13822); assay: Inhibition of human C-terminal His6-tagged ATX beta expressed in Sf9 insect cells using FS-3 as substrate preincubated for 45 mins followed by substrate addition and measured at 1 min interval for 30 mins by fluorescence assay
MDA-MB-231 = assay: Antiproliferative activity against human MDA-MB-231 cells measured after 72 hrs by MTT assay; format: functional, cell-based; settings: MDA-MB-231, 72 h
NCI-H2228 = assay: Antiproliferative activity against human NCI-H2228 cells measured after 72 hrs by MTT assay; format: functional, cell-based; settings: NCI-H2228, 72 h
MCF7 = assay: Antiproliferative activity against human MCF7 cells measured after 72 hrs by MTT assay; format: functional, cell-based; settings: MCF7, 72 h
A549 = assay: Antiproliferative activity against human A549 cells measured after 72 hrs by MTT assay; format: functional, cell-based; settings: A549, 72 h

SMILES	IC50 (Autotaxin) [µM]	IC50 (MDA-MB-231) [µM]	IC50 (NCI-H2228) [µM]	IC50 (MCF7) [µM]	IC50 (A549) [µM]
CCn1cc(/C(=N/Nc2nc(-c3ccc(Cl)cc3)c(C#N)s2)C(F)(F)F)c2cc(-c3nc(CN4CCN(C)CC4)cs3)ccc21	1.21	1.56	> 15		
CCn1cc(/C(=N/Nc2nc(-c3ccc(F)cc3)c(C#N)s2)C(F)(F)F)c2cc(-c3nc(CN4CCCCC4)cs3)ccc21	3.43	5.46	5.71	1.57	> 15
CCn1cc(/C(=N/Nc2nc(-c3ccc(OC)cc3)c(C#N)s2)C(F)(F)F)c2cc(-c3nc(CN4CCN(C)CC4)cs3)ccc21	1.85	8.21	2.6	2.79	4.93
CCn1cc(/C(=N/Nc2nc(-c3ccc(Cl)cc3)c(C#N)s2)C(F)(F)F)c2cc(-c3nc(CN4CCC(C)CC4)cs3)ccc21	4.21				
CCc1nc2c(C)cc(N3CCN(CC(=O)N4CC(O)C4)CC3)cn2c1N(C)c1nc(-c2ccc(F)cc2)c(C#N)s1 [ZIRITAXESTAT]		6.27	> 15	8.32	> 15
Cn1cc(/C(=N/Nc2nc(-c3ccc(F)cc3)c(C#N)s2)C(F)(F)F)c2cc(-c3nc(CN4CCC(O)CC4)cs3)ccc21	1.72	4.51	9.65	4.83	9.21
O=C(CCN1CCN(C(=O)OCc2cc(Cl)cc(Cl)c2)CC1)c1ccc2[nH]c(=O)oc2c1		4.17	11.3	2.31	8.21
CCn1cc(/C(=N/Nc2nc(-c3ccc(F)cc3)c(C#N)s2)C(F)(F)F)c2cc(-c3nc(CN4CCC[C@H]4CO)cs3)ccc21	5.27				
CCn1cc(/C(=N/Nc2nc(-c3ccc(F)cc3)c(C#N)s2)C(F)(F)F)c2cc(-c3nc(CN4CCN(C)CC4)cs3)ccc21	3.02			2.1	11.7
CCn1cc(/C(=N/Nc2nc(-c3ccc(Cl)cc3)c(C#N)s2)C(F)(F)F)c2cc(-c3nc(CN4CCCC4)cs3)ccc21	2.45	1.56		5.03	> 15
CCn1cc(/C(=N/Nc2nc(-c3ccc(Cl)cc3)c(C#N)s2)C(F)(F)F)c2cc(-c3nc(CN4CC(O)C4)cs3)ccc21	2.46	3.41	> 15	> 15	
CCn1cc(/C(=N/Nc2nc(-c3ccc(F)cc3)c(C#N)s2)C(F)(F)F)c2cc(-c3nc(CN4CCCC4)cs3)ccc21	1.31	2.37	6.31	2.85	> 15
CCn1cc(/C(=N/Nc2nc(-c3ccc(OC)cc3)c(C#N)s2)C(F)(F)F)c2cc(-c3nc(CN4CCOCC4)cs3)ccc21	2.06	5.12			> 15
Cn1cc(/C(=N/Nc2nc(-c3ccc(Cl)cc3)c(C#N)s2)C(F)(F)F)c2cc(-c3nc(CN4CCOCC4)cs3)ccc21	2.97	2.72	> 15	3.25	9.41
CCn1cc(/C(=N/Nc2nc(-c3ccc(F)cc3)c(C#N)s2)C(F)(F)F)c2cc(-c3nc(CN4CCOCC4)cs3)ccc21	2.37	4.97	> 15	2.31	> 15
CCn1cc(/C(=N/Nc2nc(-c3ccc(Cl)cc3)c(C#N)s2)C(F)(F)F)c2cc(-c3nc(CN4CCC(O)CC4)cs3)ccc21	1.43	2.33			> 15
CCn1cc(/C(=N/Nc2nc(-c3ccc(OC)cc3)c(C#N)s2)C(F)(F)F)c2cc(-c3nc(CN4CCC(C)CC4)cs3)ccc21	> 10			2.23	9.81
CCn1cc(/C(=N/Nc2nc(-c3ccc(F)cc3)c(C#N)s2)C(F)(F)F)c2cc(-c3nc(CN4CCN(CCO)CC4)cs3)ccc21	0.78		> 15	3.25	7.31
CCn1cc(/C(=N/Nc2nc(-c3ccc(OC)cc3)c(C#N)s2)C(F)(F)F)c2cc(-c3nc(CN4CCC[C@H]4C(=O)O)cs3)ccc21	0.98	1.23		1.51	> 15
CCn1cc(/C(=N/Nc2nc(-c3ccc(F)cc3)c(C#N)s2)C(F)(F)F)c2cc(-c3nc(CN4CCC(O)CC4)cs3)ccc21	2.05			5.13	10.3
CCn1cc(/C(=N/Nc2nc(-c3ccc(Cl)cc3)c(C#N)s2)C(F)(F)F)c2cc(-c3nc(CN4CCCCC4)cs3)ccc21	6.07				
CCn1cc(/C(=N/Nc2nc(-c3ccc(OC)cc3)c(C#N)s2)C(F)(F)F)c2cc(-c3nc(CN4CCC[C@H]4CO)cs3)ccc21	0.87			4.26	10.9
CCN1CCN(Cc2csc(-c3ccc4c(c3)c(/C(=N/Nc3nc(-c5ccc(Cl)cc5)c(C#N)s3)C(F)(F)F)cn4CC)n2)CC1	2.13	3.21	> 15	5.73	13.8
CCn1cc(/C(=N/Nc2nc(-c3ccc(F)cc3)c(C#N)s2)C(F)(F)F)c2cc(-c3nc(CN4CC(O)C4)cs3)ccc21	1.25			1.79	6.92
CCn1cc(/C(=N/Nc2nc(-c3ccc(Cl)cc3)c(C#N)s2)C(F)(F)F)c2cc(-c3nc(CN4CCC[C@H]4CO)cs3)ccc21	1.41	1.21	> 15		
CCn1cc(/C(=N/Nc2nc(-c3ccc(OC)cc3)c(C#N)s2)C(F)(F)F)c2cc(-c3nc(CN4CC(O)C4)cs3)ccc21	0.91	2.43	> 15	> 15	> 15
CCn1cc(/C(=N/Nc2nc(-c3ccc(OC)cc3)c(C#N)s2)C(F)(F)F)c2cc(-c3nc(CN4CCCC4)cs3)ccc21	3.05	5.17	> 15		13.7
CCN1CCN(Cc2csc(-c3ccc4c(c3)c(/C(=N/Nc3nc(-c5ccc(F)cc5)c(C#N)s3)C(F)(F)F)cn4CC)n2)CC1	1.54	2.69		4.33	> 15
CCN1CCN(Cc2csc(-c3ccc4c(c3)c(/C(=N/Nc3nc(-c5ccc(OC)cc5)c(C#N)s3)C(F)(F)F)cn4CC)n2)CC1	0.93			4.67	> 15

Further compounds by falling IC50 (Autotaxin), results first:

IC50 (Autotaxin) [µM]	IC50 (MDA-MB-231) [µM]	IC50 (NCI-H2228) [µM]	IC50 (MCF7) [µM]	IC50 (A549) [µM]	SMILES
0.61	1.27	> 15	0.65	> 15	CCn1cc(/C(=N/Nc2nc(-c3ccc(F)cc3)c(C#N)s2)C(F)(F)F)c2cc(-c3nc(CN4CCC[C@H]4C(=O)O)cs3)ccc21
0.56	3.98	> 15	1.37		CCn1cc(/C(=N/Nc2nc(-c3ccc(OC)cc3)c(C#N)s2)C(F)(F)F)c2cc(-c3nc(CN4CCC(O)CC4)cs3)ccc21
0.337	2.08	> 15			CCn1cc(/C(=N/Nc2nc3ccccc3s2)C(F)(F)F)c2cc(-c3nc(CN4CCC(C)CC4)cs3)ccc21
0.201	7.3		2.73	9.37	CCn1cc(/C(=N/Nc2nc3ccccc3s2)C(F)(F)F)c2cc(-c3nc(CN4CCOCC4)cs3)ccc21
0.167	1.23	11.5	2.91	> 15	COc1ccc(-c2nc(N/N=C(/c3c(C)[nH]c4cc(F)c(N5CCN(CCN(C)C)CC5)cc34)C(F)(F)F)sc2C#N)cc1
0.159	1.14			> 15	CCN1CCN(C(=O)C2CCN(c3cc4c(/C=N/Nc5nc(-c6ccc(F)cc6)c(C#N)s5)c(C)[nH]c4cc3F)CC2)CC1
0.126		6.31	1.79	8.01	CCn1cc(/C(=N/Nc2nc3ccccc3s2)C(F)(F)F)c2cc(-c3nc(CN4CCCC4)cs3)ccc21
0.116	1.45	8.51	2.78	7.43	CCn1cc(/C(=N/Nc2nc3ccccc3s2)C(F)(F)F)c2cc(-c3nc(CN4CCN(C)CC4)cs3)ccc21
0.107		7.93	3.12	> 15	CCn1cc(/C(=N/Nc2nc3ccccc3s2)C(F)(F)F)c2cc(-c3nc(CN4CCCCC4)cs3)ccc21
0.104	3.67	> 15	1.67		Cc1[nH]c2cc(F)c(N3CCC(C(=O)N4CCOCC4)CC3)cc2c1/C=N/Nc1nc(-c2ccc(F)cc2)c(C#N)s1
0.072	3.49		1.92	> 15	CCn1cc(/C(=N/Nc2nc3ccccc3s2)C(F)(F)F)c2cc(-c3nc(CN4CCC[C@H]4C(=O)O)cs3)ccc21
0.057		> 15	0.75	9.07	Cc1[nH]c2cc(F)c(N3CCC(C(=O)N4CCCC4)CC3)cc2c1/C(=N/Nc1nc(-c2ccc(F)cc2)c(C#N)s1)C(F)(F)F
0.019	0.79	> 15	1.01	13.4	Cc1[nH]c2cc(F)c(N3CCN(CCN(C)C)CC3)cc2c1/C(=N/Nc1nc(-c2ccc(F)cc2)c(C#N)s1)C(F)(F)F
0.0021	0.31	7.18	0.43	11	CCn1cc(/C(=N/Nc2nc3ccccc3s2)C(F)(F)F)c2cc(-c3nc(CN4CCC(O)CC4)cs3)ccc21
